# Reference: PMC10022191, “Safety, tolerability, pharmacokinetics, and antiviral activity of the novel core protein allosteric modulator ZM-H1505R (Canocapavir) in chronic hepatitis B patients: a randomized multiple-dose escalation trial” (BMC Medicine, 2023)
# Assay: phase 1b trial: adverse reactions and tolerability in CHB patients
# Format: in vivo, human
# Conditions: 28 days
# Description: This was a randomized, open-label, placebo-controlled, phase 1b study (Clinical Trial Registration Number: NCT05470829; Chinese Clinical Trial Registration Number: CTR20210686), which was conducted at the Phase I Clinical Research Center, The First Hospital of Jilin University (Jilin, China), during the period from May to November of 2021. In order to minimize the safety risk of Canocapavir, an adaptive ascending dosing strategy was adopted for Canocapavir treatment in this study. The second and third assigned doses were initiated only after the safety data from the previous dose was reviewed and determined to be safe by the Principal Investigator and the Sponsor on day 8 postdosing (post drug administration days). Canocapavir was administered at the Clinical Research Center on days 1–8 and day 28 and at home on days 9–27 under the same conditions (fixed administration time and fasting condition). Patients were required to visit the facility for follow-up on days 15, 22, 27, 43 ± 1, and 57 ± 2 postdosing. The study protocol and informed consent forms were prepared according to the principles of the Declaration of Helsinki. The study protocol was approved by the Institutional Review Board of the First Hospital of Jilin University (approval number: 20Y201-006). All recruited patients provided written informed consent before participating in any study-related procedures.
# A total of 30 CHB patients were recruited in this study and were randomly assigned into three cohorts (N = 10, each). In these three cohorts, the patients (in a ratio of 4:1) received 50, 100, or 200 mg of Canocapavir or placebo once a day for 28 consecutive days under fasting conditions, followed by a 28-day follow-up (Fig. 1). The patients, care providers, and those assessing outcomes were blinded during the study. This random process was completed in an electronic data capture system, and the details are shown in Additional file 1.
# To examine possible adverse events (AEs) and adverse reactions (an adverse event is definitely, probably, or possibly related to the drug) in this study, the recruited patients underwent regular clinical laboratory testing, 12-lead electrocardiograms, examination of vital signs, abdominal ultrasound, and regular physical examinations, using the baseline data as a control. The severity of AEs and laboratory abnormalities were graded according to the Common Terminology Criteria for Adverse Events (CTCAE), version 5.0, which defines toxicity criteria. The AEs were coded using the Medical Dictionary for Regulatory Activities, version 24.1 (McLean, VA, USA).
structure (smiles),measurement,setting,value
O=C1CO[C@H](c2cn(-c3ccc(Br)cc3)nc2-c2ccc(F)cc2)N1CCc1ccc2[nH]c(=O)[nH]c2c1 [Canocapavir],"Adverse reactions, grade I, number of subjects",50 mg q.d.,2 n
same,"Adverse reactions, grade I, percent of subjects",50 mg q.d.,25.00%
same,"Adverse reactions, grade II, number of subjects",50 mg q.d.,0 n
same,"Adverse reactions, grade II, percent of subjects",50 mg q.d.,0%
same,"Adverse reactions, grade III, number of subjects",50 mg q.d.,1 n
same,"Adverse reactions, grade III, percent of subjects",50 mg q.d.,12.50%
same,"Adverse reactions, total (all grades), number of subjects",50 mg q.d.,3 n
same,"Adverse reactions, total (all grades), percent of subjects",50 mg q.d.,37.5%
same,"Decreased neutrophil count, cases",50 mg q.d.,1 case
same,"Decreased neutrophil count, grade II, number of subjects",50 mg q.d.,0 n
same,"Decreased neutrophil count, grade II, percent of subjects",50 mg q.d.,0%
same,"Decreased neutrophil count, grade III, percent of subjects",50 mg q.d.,12.50%
same,"Decreased neutrophil count, number of subjects (%)",50 mg q.d.,1 (12.5) n (%)
same,"Decreased platelet count, cases",50 mg q.d.,0 case
same,"Decreased platelet count, grade I, number of subjects",50 mg q.d.,0 n
same,"Decreased platelet count, grade I, percent of subjects",50 mg q.d.,0%
same,"Decreased platelet count, number of subjects (%)",50 mg q.d.,0 (0) n (%)
same,"Decreased serum phosphorus, cases",50 mg q.d.,0 case
same,"Decreased serum phosphorus, grade I, number of subjects",50 mg q.d.,0 n
same,"Decreased serum phosphorus, grade I, percent of subjects",50 mg q.d.,0%
same,"Decreased serum phosphorus, number of subjects (%)",50 mg q.d.,0 (0) n (%)
same,"Decreased white blood cell count, cases",50 mg q.d.,1 case
same,"Decreased white blood cell count, grade II, percent of subjects",50 mg q.d.,12.50%
same,"Decreased white blood cell count, number of subjects (%)",50 mg q.d.,1 (12.5) n (%)
same,"Hypertriglyceridemia, cases",50 mg q.d.,0 case
same,"Hypertriglyceridemia, grade III, number of subjects",50 mg q.d.,0 n
same,"Hypertriglyceridemia, grade III, percent of subjects",50 mg q.d.,0%
same,"Hypertriglyceridemia, number of subjects (%)",50 mg q.d.,0 (0) n (%)
same,"Increased alanine aminotransferase, cases",50 mg q.d.,2 case
same,"Increased alanine aminotransferase, grade I, number of subjects",50 mg q.d.,2 n
same,"Increased alanine aminotransferase, grade I, percent of subjects",50 mg q.d.,25.00%
same,"Increased alanine aminotransferase, grade II, number of subjects",50 mg q.d.,0 n
same,"Increased alanine aminotransferase, grade II, percent of subjects",50 mg q.d.,0%
same,"Increased alanine aminotransferase, number of subjects (%)",50 mg q.d.,2 (25) n (%)
same,"Increased aspartate aminotransferase, cases",50 mg q.d.,1 case
same,"Increased aspartate aminotransferase, grade I, number of subjects",50 mg q.d.,1 n
same,"Increased aspartate aminotransferase, grade I, percent of subjects",50 mg q.d.,12.50%
same,"Increased aspartate aminotransferase, grade II, number of subjects",50 mg q.d.,0 n
same,"Increased aspartate aminotransferase, grade II, percent of subjects",50 mg q.d.,0%
same,"Increased aspartate aminotransferase, number of subjects (%)",50 mg q.d.,1 (12.5) n (%)
same,"Increased bilirubin, cases",50 mg q.d.,0 case
same,"Increased bilirubin, grade I, number of subjects",50 mg q.d.,0 n
same,"Increased bilirubin, grade I, percent of subjects",50 mg q.d.,0%
same,"Increased bilirubin, number of subjects (%)",50 mg q.d.,0 (0) n (%)
same,"Increased creatinine, cases",50 mg q.d.,1 case
same,"Increased creatinine, grade I, number of subjects",50 mg q.d.,1 n
same,"Increased creatinine, grade I, percent of subjects",50 mg q.d.,12.50%
same,"Increased creatinine, number of subjects (%)",50 mg q.d.,1 (12.5) n (%)
same,"Increased γ-glutamyltransferase, cases",50 mg q.d.,0 case
same,"Increased γ-glutamyltransferase, grade I, number of subjects",50 mg q.d.,0 n
same,"Increased γ-glutamyltransferase, grade I, percent of subjects",50 mg q.d.,0%
same,"Increased γ-glutamyltransferase, number of subjects (%)",50 mg q.d.,0 (0) n (%)
same,"Rash, cases",50 mg q.d.,0 case
same,"Rash, grade I, number of subjects",50 mg q.d.,0 n
same,"Rash, grade I, percent of subjects",50 mg q.d.,0%
same,"Rash, number of subjects (%)",50 mg q.d.,0 (0) n (%)
same,"Total adverse reactions, cases",50 mg q.d.,6 case
same,"Total adverse reactions, number of subjects (%)",50 mg q.d.,3 (37.5) n (%)
same,"Adverse reactions, grade I, number of subjects",100 mg q.d.,4 n
same,"Adverse reactions, grade I, percent of subjects",100 mg q.d.,50.00%
same,"Adverse reactions, grade II, number of subjects",100 mg q.d.,1 n
same,"Adverse reactions, grade II, percent of subjects",100 mg q.d.,12.50%
same,"Adverse reactions, grade III, number of subjects",100 mg q.d.,0 n
same,"Adverse reactions, grade III, percent of subjects",100 mg q.d.,0%
same,"Adverse reactions, total (all grades), number of subjects",100 mg q.d.,5 n
same,"Adverse reactions, total (all grades), percent of subjects",100 mg q.d.,62.5%
same,"Decreased neutrophil count, cases",100 mg q.d.,1 case
same,"Decreased neutrophil count, grade II, percent of subjects",100 mg q.d.,12.50%
same,"Decreased neutrophil count, grade III, number of subjects",100 mg q.d.,0 n
same,"Decreased neutrophil count, grade III, percent of subjects",100 mg q.d.,0%
same,"Decreased neutrophil count, number of subjects (%)",100 mg q.d.,1 (12.5) n (%)
same,"Decreased platelet count, cases",100 mg q.d.,1 case
same,"Decreased platelet count, grade I, number of subjects",100 mg q.d.,1 n
same,"Decreased platelet count, grade I, percent of subjects",100 mg q.d.,12.50%
same,"Decreased platelet count, number of subjects (%)",100 mg q.d.,1 (12.5) n (%)
same,"Decreased serum phosphorus, cases",100 mg q.d.,0 case
same,"Decreased serum phosphorus, grade I, number of subjects",100 mg q.d.,0 n
same,"Decreased serum phosphorus, grade I, percent of subjects",100 mg q.d.,0%
same,"Decreased serum phosphorus, number of subjects (%)",100 mg q.d.,0 (0) n (%)
same,"Decreased white blood cell count, cases",100 mg q.d.,1 case
same,"Decreased white blood cell count, grade II, percent of subjects",100 mg q.d.,12.50%
same,"Decreased white blood cell count, number of subjects (%)",100 mg q.d.,1 (12.5) n (%)
same,"Hypertriglyceridemia, cases",100 mg q.d.,0 case
same,"Hypertriglyceridemia, grade III, number of subjects",100 mg q.d.,0 n
same,"Hypertriglyceridemia, grade III, percent of subjects",100 mg q.d.,0%
same,"Hypertriglyceridemia, number of subjects (%)",100 mg q.d.,0 (0) n (%)
same,"Increased alanine aminotransferase, cases",100 mg q.d.,3 case
same,"Increased alanine aminotransferase, grade I, number of subjects",100 mg q.d.,3 n
same,"Increased alanine aminotransferase, grade I, percent of subjects",100 mg q.d.,37.50%
same,"Increased alanine aminotransferase, grade II, number of subjects",100 mg q.d.,0 n
same,"Increased alanine aminotransferase, grade II, percent of subjects",100 mg q.d.,0%
same,"Increased alanine aminotransferase, number of subjects (%)",100 mg q.d.,3 (37.5) n (%)
